From patent US20190255022A1, “WOUND-HEALING AGENT” (NIPPON CHEMIPHAR CO., LTD., priority 2016, published 2019)

Test system: rat pressure ulcer model
Assay: Effect of compound A in rat pressure ulcer model
Format: in vivo
Details: for Number of days required for healing: 150 mg once a day until healing; for Number of days required for healing / wound area ratio: mean±standard error; for wound area ratio: 150 mg once a day
Experimental: The compound A was weighed in the required amount, and polyethylene glycol 400 (PEG400) was added to the compound to prepare liquids having final concentrations of the compound of 0.01, 0.1, and 1.0 w/v %. In order to prepare ointments having final concentrations of the compound of 0.005, 0.05, and 0.5 w/w %, PEG4000 melted by warming at 65° C. was added to the liquids, and the liquids were stirred until they solidified at room temperature to prepare ointments having concentrations of the compound of 0.005, 0.05, and 0.5 w/w %.
Pentobarbital sodium was intraperitoneally administered (50 mg/kg) to 8 weeks old Slc:SD rats, of which skins on the right third trochanter had been broadly depilated beforehand using an electric clipper and an electric shaver, 20 mg/kg of allobarbital was further intraperitoneally administered to anesthetize the rats, and the animals were fixed on wooden fixation plates in the prone position. Absorbent cotton was inserted between the femoral region and the fixation plate as a cushion, and a stainless steel bar (diameter 19 mm, length 50 cm) having a weight of 1.02 to 1.03 kg and attached with a rubber stopper (diameter 12 mm) was placed on the skin over the right third trochanter to give a pressure load (902.3 to 911.2 g/cm^2) for 24 hours^5). After 24 hours, the pressure load was eliminated, a 5% glucose solution was orally administered to the rats, and two days after the elimination of the pressure load, the necrotic skin was surgically removed under isoflurane anesthesia to prepare a pressure ulcer model. As for the methods of the experiments, Hidetoshi Hamamoto et al., Clinical Pharmacology and Therapy (Yakuri to Rinsho), 15:255-262, 2005, Effect of MRX-201 on Wound Healing Dermal Burns and Decubitus Ulcer in Rat was referred to.
After the preparation of the pressure ulcer model, the administration was performed once a day at a dose of 150 mg until healing was completed. The wound surface was cleaned with absorbent cotton dipped in physiological saline before the administration, and the ointment was applied to the whole wound surface with a spatula.
Wound area was measured once a day after the start of the administration of the test substance until healing was completed. By using the measured wound area, wound area ratio (%) based on the wound area before the start of the administration was calculated. The number of days of the period from the start of the administration to healing was calculated as number of days required for healing.
Homoscedasticity was examined by the Bartlett's method. When homoscedastic results were obtained, one-way layout analysis of variance was further performed, and when significant results were obtained, mean values were compared by the Tukey's method. When heteroscedastic results were obtained, Kruskal-Wallis H-test was performed, and when significant results were obtained, mean ranks were compared by the Tukey's method. For the Bartlett's method, one-way analysis of variance, and Kruskal-Wallis H-test, the statistical significance level was set at 5%, and for the Tukey's method, the statistical significance level was set at 5% and 1%.

Q: For `Cc1cc2c(CCc3sc(-c4ccc(C(F)(F)F)cc4)nc3C(C)C)noc2cc1OCC(=O)O` [compound A, [3-[2-[4-isopropyl-2-(4-trifluoromethyl)phenyl-5-thiazolyl]ethyl]-5-methyl-1,2-benzisoxazol-6-yl]oxyacetic acid], which “number of the days required for healing compared with the vehicle-administered group” value (0.005% and 0.05% compound A-administered groups) is on record?
A: significantly decreased

Q: What about the “Number of days required for healing” value (0.005% compound A ointment, n=10) of the same compound?
A: 20.1 ± 1.4 days

Q: What about the wound area ratio (0.005% compound A ointment, day 1 of administration, n=10) of the same compound?
A: 100.0 ± 0.0%

Q: What about the wound area ratio (0.005% compound A ointment, day 2 of administration, n=10) of the same compound?
A: 108.3 ± 3.1%

Q: And the wound area ratio (0.005% compound A ointment, day 3 of administration, n=10)?
A: 108.9 ± 3.9%

Q: What about the wound area ratio (0.005% compound A ointment, day 4 of administration, n=10) of the same compound?
A: 99.9 ± 3.5 %

Q: What about the wound area ratio (0.005% compound A ointment, day 5 of administration, n=10) of the same compound?
A: 92.1 ± 3.7 %

Q: What about the wound area ratio (0.005% compound A ointment, day 6 of administration, n=10) of the same compound?
A: 76.4 ± 5.5 %

Q: What about the wound area ratio (0.005% compound A ointment, day 7 of administration, n=10) of the same compound?
A: 66.4 ± 4.7 %

Q: What about the wound area ratio (0.005% compound A ointment, day 8 of administration, n=10) of the same compound?
A: 55.2 ± 4.8 %

Q: What about the wound area ratio (0.005% compound A ointment, day 9 of administration, n=10) of the same compound?
A: 45.3 ± 4.3 %

Q: And the wound area ratio (0.005% compound A ointment, day 10 of administration, n=10)?
A: 39.4 ± 4.1 %

Q: And the wound area ratio (0.005% compound A ointment, day 11 of administration, n=10)?
A: 31.5 ± 3.3 %

Q: And the wound area ratio (0.005% compound A ointment, day 12 of administration, n=10)?
A: 23.8 ± 2.4 %

Q: And the wound area ratio (0.005% compound A ointment, day 13 of administration, n=10)?
A: 19.6 ± 2.3 %

Q: And the wound area ratio (0.005% compound A ointment, day 14 of administration, n=10)?
A: 14.4 ± 2.5 %

Q: What about the wound area ratio (0.005% compound A ointment, day 15 of administration, n=10) of the same compound?
A: 10.3 ± 2.1%

Q: What about the wound area ratio (0.005% compound A ointment, day 16 of administration, n=10) of the same compound?
A: 7.1 ± 1.8 %

Q: And the wound area ratio (0.005% compound A ointment, day 17 of administration, rats except for the healed rats)?
A: 4.4 ± 1.5 %

Q: And the wound area ratio (0.005% compound A ointment, day 18 of administration, rats except for the healed rats)?
A: 4.9 ± 1.6^ %

Q: And the wound area ratio (0.005% compound A ointment, day 19 of administration, rats except for the healed rats)?
A: 3.3 ± 1.5 %

Q: What about the wound area ratio (0.005% compound A ointment, day 20 of administration, rats except for the healed rats) of the same compound?
A: 2.8 ± 1.5^ %

Q: What about the “wound areas compared with the vehicle-administered group” value (0.005% compound A-administered group, from the day 4 of the administration) of the same compound?
A: significantly smaller

Q: And the “wound areas compared with the vehicle-administered group” value (0.05% and 0.5% compound A-administered groups, from the day 5 of the administration)?
A: significantly smaller

Q: And the “Number of days required for healing” value (0.05% compound A ointment, n=10)?
A: 19.7 ± 1.1 days

Q: And the wound area ratio (0.05% compound A ointment, day 1 of administration, n=10)?
A: 100.0 ± 0.0%

Q: And the wound area ratio (0.05% compound A ointment, day 2 of administration, n=10)?
A: 115.0 ± 2.8%

Q: And the wound area ratio (0.05% compound A ointment, day 3 of administration, n=10)?
A: 113.6 ± 3.5%

Q: What about the wound area ratio (0.05% compound A ointment, day 4 of administration, n=10) of the same compound?
A: 104.9 ± 3.1%

Q: What about the wound area ratio (0.05% compound A ointment, day 5 of administration, n=10) of the same compound?
A: 95.1 ± 3.7 %

Q: What about the wound area ratio (0.05% compound A ointment, day 6 of administration, n=10) of the same compound?
A: 84.4 ± 2.8%

Q: What about the wound area ratio (0.05% compound A ointment, day 7 of administration, n=10) of the same compound?
A: 73.5 ± 2.7 %

Q: And the wound area ratio (0.05% compound A ointment, day 8 of administration, n=10)?
A: 63.4 ± 3.1 %

Q: What about the wound area ratio (0.05% compound A ointment, day 9 of administration, n=10) of the same compound?
A: 49.8 ± 4.2 %

Q: What about the wound area ratio (0.05% compound A ointment, day 10 of administration, n=10) of the same compound?
A: 41.6 ± 3.9 %

Q: And the wound area ratio (0.05% compound A ointment, day 11 of administration, n=10)?
A: 31.2 ± 3.1 %

Q: What about the wound area ratio (0.05% compound A ointment, day 12 of administration, n=10) of the same compound?
A: 22.3 ± 3.6 %

Q: What about the wound area ratio (0.05% compound A ointment, day 13 of administration, n=10) of the same compound?
A: 16.4 ± 4.0 %

Q: And the wound area ratio (0.05% compound A ointment, day 14 of administration, n=10)?
A: 12.1 ± 3.7 %

Q: And the wound area ratio (0.05% compound A ointment, day 15 of administration, n=10)?
A: 8.6 ± 3.2 %

Q: And the wound area ratio (0.05% compound A ointment, day 16 of administration, n=10)?
A: 7.5 ± 3.3 %

Q: And the wound area ratio (0.05% compound A ointment, day 17 of administration, rats except for the healed rats)?
A: 6.7 ± 3.2 %

Q: And the wound area ratio (0.05% compound A ointment, day 18 of administration, rats except for the healed rats)?
A: 7.8 ± 3.8^ %

Q: What about the wound area ratio (0.05% compound A ointment, day 19 of administration, rats except for the healed rats) of the same compound?
A: 5.4 ± 2.9^ %

Q: And the wound area ratio (0.05% compound A ointment, day 20 of administration, rats except for the healed rats)?
A: 5.4 ± 3.2^ %

Q: And the “Number of days required for healing” value (0.5% compound A ointment, n=10)?
A: 21.0 ± 1.2 days

Q: What about the wound area ratio (0.5% compound A ointment, day 1 of administration, n=10) of the same compound?
A: 100.0 ± 0.0%

Q: What about the wound area ratio (0.5% compound A ointment, day 2 of administration, n=10) of the same compound?
A: 119.6 ± 5.0%

Q: What about the wound area ratio (0.5% compound A ointment, day 3 of administration, n=10) of the same compound?
A: 117.5 ± 5.0%

Q: What about the wound area ratio (0.5% compound A ointment, day 4 of administration, n=10) of the same compound?
A: 109.5 ± 4.6%

Q: What about the wound area ratio (0.5% compound A ointment, day 5 of administration, n=10) of the same compound?
A: 93.2 ± 4.3 %

Q: What about the wound area ratio (0.5% compound A ointment, day 6 of administration, n=10) of the same compound?
A: 84.9 ± 4.3%

Q: And the wound area ratio (0.5% compound A ointment, day 7 of administration, n=10)?
A: 77.0 ± 5.1%

Q: What about the wound area ratio (0.5% compound A ointment, day 8 of administration, n=10) of the same compound?
A: 65.3 ± 4.4%

Q: What about the wound area ratio (0.5% compound A ointment, day 9 of administration, n=10) of the same compound?
A: 56.0 ± 4.0%

Q: What about the wound area ratio (0.5% compound A ointment, day 10 of administration, n=10) of the same compound?
A: 49.2 ± 3.9%

Q: And the wound area ratio (0.5% compound A ointment, day 11 of administration, n=10)?
A: 39.7 ± 4.6%

Q: And the wound area ratio (0.5% compound A ointment, day 12 of administration, n=10)?
A: 28.3 ± 3.4%

Q: And the wound area ratio (0.5% compound A ointment, day 13 of administration, n=10)?
A: 19.6 ± 2.2 %

Q: What about the wound area ratio (0.5% compound A ointment, day 14 of administration, n=10) of the same compound?
A: 15.5 ± 1.6 %

Q: What about the wound area ratio (0.5% compound A ointment, day 15 of administration, n=10) of the same compound?
A: 8.0 ± 0.9 %

Q: And the wound area ratio (0.5% compound A ointment, day 16 of administration, n=10)?
A: 5.6 ± 0.7 %

Q: And the wound area ratio (0.5% compound A ointment, day 17 of administration, rats except for the healed rats)?
A: 3.7 ± 0.5 %

Q: And the wound area ratio (0.5% compound A ointment, day 18 of administration, rats except for the healed rats)?
A: 2.2 ± 0.6 %

Q: What about the wound area ratio (0.5% compound A ointment, day 19 of administration, rats except for the healed rats) of the same compound?
A: 2.2 ± 0.6 %

Q: And the wound area ratio (0.5% compound A ointment, day 20 of administration, rats except for the healed rats)?
A: 1.6 ± 0.4 %

Q: What about the exacerbation of wounds (from the day 1 to day 3 of the administration, a tendency) of the same compound?
A: suppressed
